Reference: article PMC4971421, “Redox-Dependent Modulation of T-Type Ca^2+ Channels in Sensory Neurons Contributes to Acute Anti-Nociceptive Effect of Substance P” (Antioxidants & Redox Signaling, 2016)

Experiments:
[1] = system: small-diameter DRG neurons; assay: DRG neuron excitability, perforated patch current clamp; format: cell-based, rat
Description: To knock down CaV3.2, DRGs were dissociated as described ([13]); immediately after dissociation, DRG pellets were resuspended in 900 μl DMEM (without GlutaMax I, serum or antibiotics), to which a mixture of 9 μl Lipofectamine RNAiMAX (Invitrogen) and either a mix of three anti-Cacna1h Stealth siRNAs (RSS350285, RSS350286, RSS350287; Life Technologies; 200 nM each) or a scrambled control oligo (Stealth RNAi™ siRNA Negative Control; Life Technologies; 200 nM) were added immediately before resuspension. Cultures were than plated in 50 μl droplets onto glass coverslips that were coated with poly-D-lysine and incubated for 5–6 h; the transfection media were then replaced with full DRG culture medium. Patch-clamp recordings were conducted 24–48 h after the transfection. The following primers were used for reverse transcription polymerase chain reaction (RT-PCR) analysis: • Cacna1h sense: 5′-[…]-3′ • Cacna1h AS: 5′-[…]-3′ • Gapdh sense: 5′-[…]-3′ • Gapdh AS: 5′-[…]-3′
Neuronal excitability was studied using the amphotericin B-perforated patch-clamp current technique ([13]). The extracellular solution contained the following (in mM): 160 NaCl, 2.5 KCl, 5 CaCl2, 1 MgCl2, 10 HEPES, and 8 Glucose. The intracellular solution contained the following (in mM): 145 KCl, 15 NaCl, 5 MgCl2, 10 HEPES, and 250 μg/ml Amphotericin B. The access resistance was typically within […]. APs were generated by an injection of 200 pA current for 1 s from a holding current of 0 pA. Rheobase was determined from a train of current steps from 0 to 400 pA delivered in 20-pA increments. Current clamp recordings were sampled at 12.5 kHz. Bridge balance adjustments were not applied, since only relative changes in Erest, AP number, and rheobase were investigated.

[2] = system: high-voltage-activated (HVA) Ca^2+ currents in DRG neurons; assay: HVA Ca2+ current, whole-cell patch clamp, DRG neurons; format: cell-based, rat; conditions: 1 μM
Description: DRG neurons from adult male Sprague–Dawley rats (170–180 g) were dissociated as previously described ([13], [29]) and cultured in DMEM supplemented with GlutaMax I, 10% fetal calf serum, penicillin (50 U/ml), and streptomycin (50 μg/ml) on glass coverslips that were coated with poly-D-lysine for 2–5 days in a humidified incubator (37°C, 5% CO2). No growth factors were added to the culture media. HEK 293 cells were cultured in the same DMEM media; cells were passaged every 2 days. Human NK1 receptor (GenBank accession No. AY462098) complementary DNA (cDNA) was from the Missouri Science and Technology cDNA Resource Center. WtCaV3.1 (GenBank accession No. AF027984), wtCaV3.2 (GenBank accession No. AF051946), CaV3.1Q172H, and CaV3.2H191Q were kindly provided by Dr E. Perez-Reyes (University of Virginia). HEK293 cells were transfected using Lipofectamine 2000 (Invitrogen) according to the manufacturer's instructions. […]
All recordings were made using Multiclamp 700B amplifier in combination with pCLAMP 10.4 software (Molecular Devices). […] T-type calcium currents (LVA) were measured by 50 ms square voltage pulses to −40 mV from a holding potential of −90 mV. HVA currents were measured by 200 ms square voltage pulses to 0 mV from a holding potential of −90 mV.

Nav1.5 = conditions: 1 μM; cited from earlier work
rat hind paw = assay: von Frey test; format: in vivo; conditions: 50 μl; 0.5 nmol/site; filaments 2–15 g; 8 min after injection
Description: For measurement of sensitivity to gentle touch and mechanical hyperalgesia, two methods were used. (i) Cotton swab test was performed as previously described ([53]). Briefly, rats were allowed to acclimate in a cage with a wire mesh bottom for at least 30 min and then were manually probed with a “cotton swab” pulled from a Q-tip (to approximately three times the original size). A swab was applied in a sweeping motion underneath the rats’ paws, and the withdrawal responses were recorded. Five sweeps were applied in each test, with at least 10 s between each sweep; withdrawal score was calculated as a percentage of positive responses. (ii) The von Frey test was performed using a calibrated range of filaments with different bending forces (2, 4, 6, 8, 10, and 15 g; Stoelting Co.). A single filament was applied perpendicularly to the plantar surface of the hind paw for five times, with an interval of 5 s, and it was scored for withdrawal responses. Each force was probed five times, the number of withdrawals out of five trials was counted, and the percentage of withdrawal responses was calculated. Both types of assays were performed 8 min after the hind-paw drug injection.

CaV3 = conditions: read-out: IC50, CaV3 inhibition; cited from earlier work
Description: (§1) The T-type Ca^2+ current is an important regulator of sensory neuron excitability ([10], [17], [18], [20], [23], [24], [51], [71], [75]). […] Z944 (1 μM) inhibited LVA curren ...

L-type VGCCs = conditions: 1 μM; cited from earlier work
Description: as §1

## CC(C)(C)NC(=O)CN1CCC(CNC(=O)c2cc(F)cc(Cl)c2)CC1 [Z944, N-[[1-[2-(tert-butylamino)-2-oxoethyl]piperidin-4-yl]methyl]-3-chloro-5-fluorobenzamide]
[1]
  AP amplitude or duration: without significantly affecting
  resting membrane potential (Erest): hyperpolarized
[1]; 200 pA for 1 s
  action potential (AP) firing: decreased
[1]; BK 250 nM
  effects of BK on the rheobase and the AP number when co-applied with BK: completely reversed
[1]; current steps 0–400 pA in 20-pA increments
  rheobase: significantly increased
[1]; perforated current clamp
  small DRG neuron excitability: decreased
[1]; siRNA against Cacna1h
  effect on Erest, AP number, or rheobase in Cacna1h knocked-down neurons: neither Z994 nor ST101 produced any significant effect
[2]
  effect on HVA current: without a noticeable effect
Nav1.5
  effect on Nav1.5: no significant effect
Rat hind paw
  response to von Frey filament stimulation: significantly impaired their ability to respond to stimulation
CaV3
  IC50: ~50 nM
L-type VGCCs
  effect on L-type VGCCs: no significant effect
